Data from paper PMC10491346, “Enzyme Mechanistic Studies of NMA1982, a Protein Tyrosine Phosphatase and Potential Virulence Factor in Neisseria meningitidis” (Research Square, 2023).

Target: T1, NMA1982 (Neisseria meningitidis, UniProt A1KVD0)
T1 construct: gene NMC1647
Assay: biochemical

T1 sequence (A1KVD0 entry or part of it): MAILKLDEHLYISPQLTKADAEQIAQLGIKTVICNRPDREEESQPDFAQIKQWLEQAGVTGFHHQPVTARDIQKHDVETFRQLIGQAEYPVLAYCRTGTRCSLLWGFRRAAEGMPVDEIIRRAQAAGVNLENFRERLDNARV

[O]=[V]([OH])([OH])[OH] [sodium orthovanadate]
IC50: 161 µM
